Literature values in patent US20070042008A1, “Compositions containing phosphatidylcholine and essential fatty acids” (BodyBio, Inc., priority 2005, published 2007).

Settings: oral

Phosphatidylcholine [PC]
blood levels peak (time to peak): 8 to 12 h | absorbed, taken orally (per 24 hrs, taken with meals): up to 90%
